# Columns and labels:
# Type in all cases: in vivo
# [1] = Hypercalcemic effect of PEG-[Cys^35]-PTH(1-35) in normal female DDY mice; settings: for Blood iCa level Hour 1: 1 hour after administration; for Blood iCa level Hour 3: 3 hours; for Blood iCa level Hour 6: 6 hours; for Blood iCa level Hour 9: 9 hours; for Blood iCa level Hour 24: 24 hours; for Blood iCa level Hour 0: before administration
# Protocol: 2 k, 5 k and 20 k PEG-[Cys^35]-PTH(1-35) were also adjusted similarly to 30, 10 and 2 nmol/mL (calculated as PTH) and allowed to stand on ice immediately before administration.
# Using female DDY mice at 6 weeks of age (Japan SLC, Inc.), the corrected level of ionized calcium at pH 7.4 was determined for each sample in the same manner as shown in (1) above. The mice received subcutaneous administration of each drug at a dose of 5 mL/kg. The buffer was administered to a group of 5 mice. […] 150 nmol/kg 2 k, 5 k and 20 k PEG-[Cys^35]-PTH(1-35) were administered to groups of 4 mice each. 50 and 10 nmol/kg 2 k, 5 k and 20 k PEG-[Cys^35]-PTH(1-35) were administered to groups of 5 mice each. At 1, 3, 6, 9 and 24 hours after administration, blood was collected by orbital puncture to monitor the time course of corrected blood ionized calcium levels.
# [2] = Pharmacokinetics in rats by intravenous route; settings: rat, in vivo, 80 μg/mL at 1 mL/kg
# Protocol: Each sample was adjusted to 80 μg/mL by dilution with 25 mmol/L citrate-phosphate buffer (pH 5.0) containing 100 mmol/L NaCl and 0.05 vol % Tween 20 to give a solution for administration. Male SD rats at 6 weeks of age (CLEA Japan, Inc.) were provided for this experiment. Intravenous injection was performed on rats having polyethylene tubes (SP-31, Natsume Seisakusho Co., Ltd.) inserted into the femoral artery and vein. The solutions thus prepared were each administered at a dose of 1 mL/kg through a polyethylene tube inserted into the femoral vein, and blood was collected through a polyethylene tube inserted into the femoral artery before administration and at 5, 15, 30 and 45 minutes as well as 1, 2, 4, 6, 8 and 24 hours after administration. Subcutaneous administration was performed on rats having polyethylene tubes inserted into the femoral artery. The solutions prepared above were each subcutaneously administered at a dose of 1 mL/kg to the dorsal neck region of the rats, and blood was collected in the same manner as used for intravenous injection. These blood samples were centrifuged to collect plasma and stored at −40° C. until assayed for PTH(1-34) or PEG-PTH(1-34) levels.
# The level of PTH(1-34) or PEG-PTH(1-34) was determined by RIA analysis using a Rat PTH IRMA Kit (Immutopics). A Cobra Quantum Model 5005 gamma counter (Packard) was used to measure radioactivity for each sample. The plasma level of PTH(1-34) or PEG-PTH(1-34) was calculated from a calibration curve prepared using PTH(1-34) or PEG-PTH(1-34). The Winnonlin program Ver. 2.1 (Scientific Consulting Inc.) was used to analyze the time course of changes in the calculated plasma PTH(1-34) or PEG-PTH(1-34) levels (FIG. 3: by intravenous route; FIG. 4: by subcutaneous route) to calculate the following as pharmacokinetic parameters: time required to reach the maximum plasma level (Tmax); maximum plasma level (Cmax); area under the curve of plasma levels (AUC); plasma half-life (t1/2); total body clearance (Cltotal); mean residence time in the body (MRT); and bioavailability (BA). […]
# [3] = Pharmacokinetics and bioavailability in rats by subcutaneous route
# [4] = Hypercalcemic effect of PEG-PTH(1-34) in normal male BDF1 mice; settings: sc, hPTH(1-34) 50-500 nmol/kg, PEG-PTHs 150 nmol/kg
# Protocol: (§1) 2 k and 5 k PEG-PTH(1-34) were also adjusted similarly to 30 nmol/mL (calculated as PTH) and allowed to stand on ice immediately before administration.
# (§2) Male BDF1 mice at 5 weeks of age (Charles River Japan, Inc.) were measured for their body weight. Immediately before drug administration, blood was collected by orbital puncture into heparinized capillary tubes and measured for baseline levels of blood ionized calcium and pH using a Ca^2+/pH analyzer (Model 348/Bayer Medical Ltd.) to give the corrected level of ionized calcium at pH 7.4 for each sample. The mice received subcutaneous administration of each drug at a dose of 5 mL/kg. […] At 1, 3 and 6 hours after administration, blood was collected by orbital puncture to monitor the time course of corrected blood ionized calcium levels.
# [5] = Hypercalcemic effect of PEG-PTH(1-34) in normal female DDY mice; settings: sc, hPTH(1-34) 50-500 nmol/kg, 5 k PEG-PTH(1-34) 150 nmol/kg
# Protocol: as §1, §2
# The same experiment was repeated on female DDY mice at 5 weeks of age (Charles River Japan, Inc.). The mice received subcutaneous administration of each drug at a dose of 5 mL/kg. […] At 1, 3 and 6 hours after administration, blood was collected by orbital puncture to monitor the time course of corrected blood ionized calcium levels.
Compound,Blood iCa level Hour 1 ([1]; 50 nmol/kg sc) [mM],Blood iCa level Hour 3 ([1]; 50 nmol/kg sc) [mM],Blood iCa level Hour 6 ([1]; 50 nmol/kg sc) [mM],Blood iCa level Hour 9 ([1]; 50 nmol/kg sc) [mM],Blood iCa level Hour 24 ([1]; 50 nmol/kg sc) [mM],Blood iCa level Hour 0 ([1]; 50 nmol/kg sc) [mM],Blood iCa level Hour 1 ([1]; 150 nmol/kg sc) [mM],Blood iCa level Hour 3 ([1]; 150 nmol/kg sc) [mM],Blood iCa level Hour 6 ([1]; 150 nmol/kg sc) [mM],Blood iCa level Hour 9 ([1]; 150 nmol/kg sc) [mM],Blood iCa level Hour 24 ([1]; 150 nmol/kg sc) [mM],Blood iCa level Hour 0 ([1]; 150 nmol/kg sc) [mM],"time of maximum increase in blood ionized calcium levels after administration ([1]; female DDY mice, sc) [h]",further results
"2 k PEG-[Cys^35]-hPTH(1-35): [Cys^35]-PTH(1-35) conjugated with mPEG 2 k-MAL (2 kDa methoxy-PEG-maleimide) at the C-terminal cysteine (SVSEIQLMHNLGKHLNSMERVEWLRKKLQDVHNFC; Parathyroid hormone 2 kDa mPEG-maleimide at Cys35; UniProt P01270 32-66, looked up, variant V35C)",1.41 ± 0.02,1.47 ± 0.03,1.47 ± 0.02,1.29 ± 0.05,1.34 ± 0.03,1.27 ± 0.03,1.44 ± 0.02,1.47 ± 0.05,1.48 ± 0.05,1.26 ± 0.02,1.34 ± 0.03,1.32 ± 0.02,3,"Blood iCa level Hour 1 ([1]; 10 nmol/kg sc): 1.44 ± 0.03 mM; Blood iCa level Hour 3 ([1]; 10 nmol/kg sc): 1.48 ± 0.02 mM; Blood iCa level Hour 6 ([1]; 10 nmol/kg sc): 1.39 ± 0.02 mM; Blood iCa level Hour 9 ([1]; 10 nmol/kg sc): 1.32 ± 0.04 mM; Blood iCa level Hour 24 ([1]; 10 nmol/kg sc): 1.37 ± 0.02 mM; Blood iCa level Hour 0 ([1]; 10 nmol/kg sc): 1.30 ± 0.04 mM; increased blood ionized calcium level maintained until ([1]; female DDY mice, sc): 6 h"
"CC[C@H](C)[C@H](NC(=O)[C@H](CCC(=O)O)NC(=O)[C@H](CO)NC(=O)[C@@H](NC(=O)[C@@H](N)CO)C(C)C)C(=O)N[C@@H](CCC(N)=O)C(=O)N[C@@H](CC(C)C)C(=O)N[C@@H](CCSC)C(=O)N[C@@H](Cc1cnc[nH]1)C(=O)N[C@@H](CC(N)=O)C(=O)N[C@@H](CC(C)C)C(=O)NCC(=O)N[C@@H](CCCCN)C(=O)N[C@@H](Cc1cnc[nH]1)C(=O)N[C@@H](CC(C)C)C(=O)N[C@@H](CC(N)=O)C(=O)N[C@@H](CO)C(=O)N[C@@H](CCSC)C(=O)N[C@@H](CCC(=O)O)C(=O)N[C@@H](CCCN=C(N)N)C(=O)N[C@H](C(=O)N[C@@H](CCC(=O)O)C(=O)N[C@@H](Cc1c[nH]c2ccccc12)C(=O)N[C@@H](CC(C)C)C(=O)N[C@@H](CCCN=C(N)N)C(=O)N[C@@H](CCCCN)C(=O)N[C@@H](CCCCN)C(=O)N[C@@H](CC(C)C)C(=O)N[C@@H](CCC(N)=O)C(=O)N[C@@H](CC(=O)O)C(=O)N[C@H](C(=O)N[C@@H](Cc1cnc[nH]1)C(=O)N[C@@H](CC(N)=O)C(=O)N[C@@H](Cc1ccccc1)C(=O)O)C(C)C)C(C)C [hPTH(1-34), reference compound]",1.45 ± 0.03,1.43 ± 0.03,1.33 ± 0.02,1.27 ± 0.05,1.36 ± 0.02,1.31 ± 0.03,1.46 ± 0.02,1.48 ± 0.03,1.36 ± 0.02,1.32 ± 0.04,1.36 ± 0.03,1.33 ± 0.03,3,"AUC ([2]; read-out: AUC): 21.7 ng·h/mL; clearance ([2]; read-out: Cltotal (converted)): 61.7 mL/min/kg; MRT ([2]; read-out: MRT): 12.7 min; half-life ([2]; read-out: t½ (converted)): 13.9 min; bioavailability ([3]; male, SD, rat, plasma, sc, 80 μg/kg, subcutaneous route, read-out: BA): 13.6%; Cmax ([3]; rat, in vivo, sc, subcutaneous, 80 μg/mL at 1 mL/kg): 5.55 ng/mL; AUC ([3]; rat, in vivo, sc, subcutaneous, 80 μg/mL at 1 mL/kg, read-out: AUC): 2.94 ng·h/mL; MRT ([3]; rat, in vivo, sc, subcutaneous, 80 μg/mL at 1 mL/kg, read-out: MRT): 32.8 min; Tmax ([3]; rat, in vivo, sc, subcutaneous, 80 μg/mL at 1 mL/kg, read-out: Tmax): 11.6 min; half-life ([3]; rat, in vivo, sc, subcutaneous, 80 μg/mL at 1 mL/kg, read-out: t ½ (converted)): 20.9 min; BA ([3]; subcutaneous route): about 13.6%; time of maximum increase in blood ionized calcium levels after administration [4]: one; time of maximum increase in blood ionized calcium levels after administration [5]: 3 h; Blood iCa level Hour 1 ([1]; 500 nmol/kg sc): 1.44 ± 0.04 mM; Blood iCa level Hour 3 ([1]; 500 nmol/kg sc): 1.46 ± 0.04 mM; Blood iCa level Hour 6 ([1]; 500 nmol/kg sc): 1.43 ± 0.01 mM; Blood iCa level Hour 9 ([1]; 500 nmol/kg sc): 1.27 ± 0.04 mM; Blood iCa level Hour 24 ([1]; 500 nmol/kg sc): 1.39 ± 0.02 mM; Blood iCa level Hour 0 ([1]; 500 nmol/kg sc): 1.34 ± 0.03 mM"
